This is an account of results in patent publication US12319672B2, “Alpha-D-galactopyranoside derivatives” (Idorsia Pharmaceuticals Ltd, priority 2019, dated 2025).

pIC50: −log10 of the molar value.

For one assay, the target named is human Gal-3 (hGal-3) (Homo sapiens (Human), UniProt P17931). Description: Competitive binding assay: binding of biotinylated hGal-3 to microplate-adsorbed asialofetuin (ASF). The settings on record: Activity on hGal-3; mean values of several measurements. Put shortly: (§1)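 Spectrophotometric readout (streptavidin-peroxidase, ABTS) of biotinylated galectin retained on ASF-coated wells. Biotinylated hGal-1 or hGal-3, 300-1000 ng/mL, co-incubated with test compound 3 h at 4° C, then washed. Mean IC50 from repeat runs.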
Sequence of human Gal-3 (hGal-3) (P17931 whole entry): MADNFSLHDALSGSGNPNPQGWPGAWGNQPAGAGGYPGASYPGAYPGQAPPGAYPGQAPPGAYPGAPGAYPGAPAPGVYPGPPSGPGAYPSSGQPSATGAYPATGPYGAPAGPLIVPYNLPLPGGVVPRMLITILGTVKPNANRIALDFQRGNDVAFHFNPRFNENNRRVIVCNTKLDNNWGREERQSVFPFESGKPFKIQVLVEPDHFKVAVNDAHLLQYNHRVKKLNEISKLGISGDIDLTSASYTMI

The target of another assay is human Gal-1 (hGal-1). Description: Competitive binding assay: binding of biotinylated hGal-1 to microplate-adsorbed asialofetuin (ASF). The conditions noted are these: Activities on hGal-1; mean values of several measurements. An outline of the steps:
as §1

Sequence of human Gal-1 (hGal-1) (P09382 2-135 limits assumed): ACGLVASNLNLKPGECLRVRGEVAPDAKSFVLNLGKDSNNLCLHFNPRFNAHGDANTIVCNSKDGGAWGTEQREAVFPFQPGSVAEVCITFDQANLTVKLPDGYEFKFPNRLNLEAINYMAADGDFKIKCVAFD

With `CO[C@@H]1[C@@H](n2cc(-c3ccc(F)c(F)c3F)nn2)[C@@H](O)[C@@H](CO)O[C@@H]1Cc1cc(C(C)(C)CO)no1` [Ex 1.253], the pIC50 is 7.24 at human Gal-3 (hGal-3) and 6.55 at human Gal-1 (hGal-1).

`CO[C@@H]1[C@@H](n2cc(-c3cc(F)c(C)c(F)c3)nn2)[C@@H](O)[C@@H](CO)O[C@@H]1Cc1cc(C2CCN(C(C)=O)CC2)on1` [Ex 1.161]: the pIC50 was 7.47 on human Gal-3 (hGal-3) and 5.78 at human Gal-1 (hGal-1).

Regarding `CO[C@@H]1[C@@H](n2cc(-c3cc(F)c(F)c(F)c3)nn2)[C@@H](O)[C@@H](CO)O[C@@H]1Cc1cc(C2CCOCC2)on1` [Ex 1.64], the negative logarithm of the IC50 (pIC50) is 6.57 on human Gal-3 (hGal-3) and 5.07 on human Gal-1 (hGal-1).

As to `CC(C)(C)OC(=O)N1CCC(c2cc(C[C@H]3O[C@H](CO)[C@H](O)[C@H](n4cc(-c5cc(F)c(F)c(F)c5)nn4)[C@H]3OCC(=O)O)no2)CC1` [Example 2.21, 2-(((2R,3R,4S,5R,6R)-2-((5-(1-(tert-butoxycarbonyl)piperidin-4-yl)isoxazol-3-yl)methyl)-5-hydroxy-6-(hydroxymethyl)-4-(4-(3,4,5-trifluorophenyl)-1H-1,2,3-triazol-1-yl)tetrahydro-2H-pyran-3-yl)oxy)acetic acid], the negative logarithm of the IC50 (pIC50) on human Gal-3 (hGal-3) is 7.66; at human Gal-1 (hGal-1), 6.16.

For the molecule `CO[C@@H]1[C@@H](n2cc(-c3cc(F)c(F)c(F)c3)nn2)[C@@H](O)[C@@H](CO)O[C@@H]1Cn1cc(C2CCN(S(=O)(=O)C(C)C)CC2)nn1` [Example 4.22, (2R,3R,4S,5R,6R)-2-(hydroxymethyl)-6-((4-(1-(isopropylsulfonyl)piperidin-4-yl)-1H-1,2,3-triazol-1-yl)methyl)-5-methoxy-4-(4-(3,4,5-trifluorophenyl)-1H-1,2,3-triazol-1-yl)tetrahydro-2H-pyran-3-ol], the pIC50 on human Gal-3 (hGal-3) is 7.35; on human Gal-1 (hGal-1) it was 6.11.

Regarding `OC[C@H]1O[C@H](CC2CC(C3CCCC3)=NO2)[C@H](O)[C@@H](n2cc(-c3cc(F)c(F)c(F)c3)nn2)[C@H]1O` (some centres unmarked) [Ex 1.11], the pIC50 was 6.29 at human Gal-3 (hGal-3) and 5.25 at human Gal-1 (hGal-1).

As to `CC(C)(C)OC(=O)N1CCC(C2CC(C[C@H]3O[C@H](CO)[C@H](O)[C@H](n4cc(-c5cc(F)c(F)c(F)c5)nn4)[C@H]3O)=NO2)CC1` (some centres unmarked) [Ex 1.41], the pIC50 on human Gal-3 (hGal-3) was 6.35; at human Gal-1 (hGal-1) it was 5.20.

As to `CCOC(=O)N1CCC(c2cc(C[C@H]3O[C@H](CO)[C@H](O)[C@H](n4cc(-c5cc(F)c(F)c(Cl)c5)nn4)[C@H]3OC)no2)CC1` [Ex 1.220], the results for the pIC50 on human Gal-3 (hGal-3) and at human Gal-1 (hGal-1) were 7.46 and 6.24, respectively.

Take `CC(C)(C)OC(=O)N1CCC(C2=NOC(C[C@H]3O[C@H](CO)[C@H](O)[C@H](n4cc(-c5c(F)cccc5F)nn4)[C@H]3O)C2)CC1` (some centres unmarked) [Ex 1.298]: the pIC50 was 5.60 on human Gal-3 (hGal-3) and 6.00 on human Gal-1 (hGal-1).

For `CO[C@@H]1[C@@H](n2cc(-c3cc(F)c(F)c(F)c3)nn2)[C@@H](O)[C@@H](CO)O[C@@H]1CC1CN(C2CCCCC2)C(=O)O1` (mixture of isomers) [Example 5.23, (RS)-3-cyclohexyl-5-(((2R,3R,4S,5R,6R)-5-hydroxy-6-(hydroxymethyl)-3-methoxy-4-(4-(3,4,5-trifluorophenyl)-1H-1,2,3-triazol-1-yl)tetrahydro-2H-pyran-2-yl)methyl)oxazolidin-2-one], the pIC50 is 6.85 at human Gal-3 (hGal-3) and 5.17 on human Gal-1 (hGal-1).

With `CO[C@@H]1[C@@H](n2cc(-c3ccc(F)c(F)c3F)nn2)[C@@H](O)[C@@H](CO)O[C@@H]1Cc1cc(C2CCN(C(C)=O)CC2)on1` [Ex 1.166], the pIC50 on human Gal-3 (hGal-3) was 7.59; on human Gal-1 (hGal-1) it was 6.59.

Take `CO[C@@H]1[C@@H](n2cc(-c3cc(F)c(F)c(F)c3)nn2)[C@@H](O)[C@@H](CO)O[C@@H]1C[C@H]1CC([C@H]2CNC(=O)C2)=NO1` [Ex 1.93]: the pIC50 at human Gal-3 (hGal-3) is 6.26; on human Gal-1 (hGal-1), 4.80.

Turning to `CO[C@@H]1[C@@H](n2cc(-c3ccc(C)c(F)c3)nn2)[C@@H](O)[C@@H](CO)O[C@@H]1Cc1cc(C2CCN(S(C)(=O)=O)CC2)on1` [Ex 1.153], the pIC50 at human Gal-3 (hGal-3) was 7.17; at human Gal-1 (hGal-1), 5.80.

For `CO[C@@H]1[C@@H](n2cc(-c3ccc(F)c(F)c3F)nn2)[C@@H](O)[C@@H](CO)O[C@@H]1Cc1cc(C2CCC2)on1` [Ex 1.226], the pIC50 was 6.89 at human Gal-3 (hGal-3) and 5.92 on human Gal-1 (hGal-1).

Turning to `CO[C@@H]1[C@@H](n2cc(-c3ccc(F)c(F)c3F)nn2)[C@@H](O)[C@@H](CO)O[C@@H]1Cc1cc(C2CCCC2)on1` [Ex 1.235], the pIC50 is 7.00 at human Gal-3 (hGal-3) and 5.88 on human Gal-1 (hGal-1).

As for `CO[C@@H]1[C@@H](n2cc(-c3cc(F)c(F)c(F)c3)nn2)[C@@H](O)[C@@H](CO)O[C@@H]1Cc1cc(C2CCNC(=O)CC2)no1` (some centres unmarked) [Ex 1.337], the pIC50 at human Gal-3 (hGal-3) is 7.26; on human Gal-1 (hGal-1) it was 6.38.

Regarding `COc1ccc(C2=NOC(C[C@H]3O[C@H](CO)[C@H](O)[C@H](n4cc(-c5cc(F)c(F)c(F)c5)nn4)[C@H]3O)C2)cn1` (some centres unmarked) [Ex 1.23], the pIC50 was 6.15 at human Gal-3 (hGal-3) and 5.17 on human Gal-1 (hGal-1).

On to `CC(C)(O)CC1CC(C[C@H]2O[C@H](CO)[C@H](O)[C@H](n3cc(-c4cc(F)c(F)c(F)c4)nn3)[C@H]2O)=NO1` (some centres unmarked) [Ex 1.42], for which the pIC50 at human Gal-3 (hGal-3) was 5.97; at human Gal-1 (hGal-1), 5.44.

With `CO[C@@H]1[C@@H](n2cc(-c3cc(F)c(F)c(F)c3)nn2)[C@@H](O)[C@@H](CO)O[C@@H]1C[C@@H]1CC(C2CCNCC2)=NO1` [Example 3.06, (2R,3R,4S,5R,6R)-2-(hydroxymethyl)-5-methoxy-6-(((S)-3-(piperidin-4-yl)-4,5-dihydroisoxazol-5-yl)methyl)-4-(4-(3,4,5-trifluorophenyl)-1H-1,2,3-triazol-1-yl)tetrahydro-2H-pyran-3-ol], the pIC50 is 6.55 on human Gal-3 (hGal-3) and 5.68 at human Gal-1 (hGal-1).

As to `CO[C@@H]1[C@@H](n2cc(-c3cc(F)c(F)c(F)c3)nn2)[C@@H](O)[C@@H](CO)O[C@@H]1Cc1cn(C2CCCCC2)nn1` [Example 4.30, (2R,3R,4S,5R,6R)-6-((1-cyclohexyl-1H-1,2,3-triazol-4-yl)methyl)-2-(hydroxymethyl)-5-methoxy-4-(4-(3,4,5-trifluorophenyl)-1H-1,2,3-triazol-1-yl)tetrahydro-2H-pyran-3-ol], the pIC50 at human Gal-3 (hGal-3) is 7.07; at human Gal-1 (hGal-1), 5.53.

Consider `CC(C)(C)OC(=O)NC1CCC(c2cc(C[C@H]3O[C@H](CO)[C@H](O)[C@H](n4cc(-c5cc(F)c(F)c(F)c5)nn4)[C@H]3O)no2)CC1` (some centres unmarked) [Ex 1.81], for which the pIC50 at human Gal-3 (hGal-3) is 6.70; on human Gal-1 (hGal-1) it was 4.84.

For `CO[C@@H]1[C@@H](n2cc(-c3cc(F)c(F)c(F)c3)nn2)[C@@H](O)[C@@H](CO)O[C@@H]1Cn1cc(C2CCN(C(=O)OCc3ccccc3)CC2)nn1` [Example 4.20, benzyl 4-(1-(((2R,3R,4S,5R,6R)-5-hydroxy-6-(hydroxymethyl)-3-methoxy-4-(4-(3,4,5-trifluorophenyl)-1H-1,2,3-triazol-1-yl)tetrahydro-2H-pyran-2-yl)methyl)-1H-1,2,3-triazol-4-yl)piperidine-1-carboxylate], the results for the pIC50 at human Gal-3 (hGal-3) and on human Gal-1 (hGal-1) were 7.68 and 6.28, respectively.

As for `OC[C@H]1O[C@H](CC2CC(C3CCNCC3)=NO2)[C@H](O)[C@@H](n2cc(-c3cc(F)c(F)c(F)c3)nn2)[C@H]1O` (mixture of isomers) [Example 3.01, (2R,3R,4R,5R,6R)-2-(hydroxymethyl)-6-(((RS)-3-(piperidin-4-yl)-4,5-dihydroisoxazol-5-yl)methyl)-4-(4-(3,4,5-trifluorophenyl)-1H-1,2,3-triazol-1-yl)tetrahydro-2H-pyran-3,5-diol], the figures for the pIC50 on human Gal-3 (hGal-3) and at human Gal-1 (hGal-1) were 6.52 and 5.24, respectively.

As for `CO[C@@H]1[C@@H](n2cc(-c3ccc(C)c(F)c3F)nn2)[C@@H](O)[C@@H](CO)O[C@@H]1Cc1cc(C(C)(O)c2ccccc2)on1` (some centres unmarked) [Ex 1.318], the pIC50 at human Gal-3 (hGal-3) is 6.80; on human Gal-1 (hGal-1), 5.05.

In the case of `CO[C@@H]1[C@@H](n2cc(-c3cc(F)c(F)c(F)c3)nn2)[C@@H](O)[C@@H](CO)O[C@@H]1CC1CC(c2cc[nH]c(=O)c2)=NO1` (mixture of isomers) [Example 2.06], the pIC50 at human Gal-3 (hGal-3) was 6.62; at human Gal-1 (hGal-1), 6.59.

Regarding `CO[C@@H]1[C@@H](n2cc(-c3cc(F)c(F)c(F)c3)nn2)[C@@H](O)[C@@H](CO)O[C@H]1Cc1cn(C2CCN(C(C)=O)CC2)nn1` [Example 4.12, 1-(4-(4-(((2S,3R,4S,5R,6R)-5-hydroxy-6-(hydroxymethyl)-3-methoxy-4-(4-(3,4,5-trifluorophenyl)-1H-1,2,3-triazol-1-yl)tetrahydro-2H-pyran-2-yl)methyl)-1H-1,2,3-triazol-1-yl)piperidin-1-yl)ethan-1-one], the figures for the pIC50 at human Gal-3 (hGal-3) and at human Gal-1 (hGal-1) were 6.15 and 5.52, respectively.

As to `CC(C)(C)c1cc(C[C@H]2O[C@H](CO)[C@H](O)[C@H](n3cc(-c4ccc(F)c(F)c4F)nn3)[C@H]2OCC(=O)O)on1` [Example 2.43, 2-(((2R,3R,4S,5R,6R)-2-((3-(tert-butyl)isoxazol-5-yl)methyl)-5-hydroxy-6-(hydroxymethyl)-4-(4-(2,3,4-trifluorophenyl)-1H-1,2,3-triazol-1-yl)tetrahydro-2H-pyran-3-yl)oxy)acetic acid], the pIC50 is 7.33 on human Gal-3 (hGal-3) and 6.26 at human Gal-1 (hGal-1).

As to `CN=S(=O)(C(C)C)N1CCC(c2cn(C[C@H]3O[C@H](CO)[C@H](O)[C@H](n4cc(-c5cc(F)c(F)c(F)c5)nn4)[C@H]3OC)nn2)CC1` (stereo partly drawn) [Example 4.25, (2R,3R,4S,5R,6R)-2-(hydroxymethyl)-5-methoxy-6-((4-(1-(N-methylpropan-2-ylsulfonimidoyl)piperidin-4-yl)-1H-1,2,3-triazol-1-yl)methyl)-4-(4-(3,4,5-trifluorophenyl)-1H-1,2,3-triazol-1-yl)tetrahydro-2H-pyran-3-ol], the pIC50 on human Gal-3 (hGal-3) was 6.92; at human Gal-1 (hGal-1) it was 5.80.
